Legend:
[1] = system: M2-10B4 mouse marrow stromal cell line; assay: Alkaline phosphatase (ALP) activity assay in M2 cells; assay type: cell-based; details: for induction of alkaline phosphatase activity: 10 μM oxysterols, osteogenic medium, 3 days (FIG. 3A); for dose- and time-dependence of induction of alkaline phosphatase activity: concentrations between 0.5-10 μM; for alkaline phosphatase activity: ligands used at 10 μM, ±SD, control vehicle C: 18±2, p<0.01 for C vs. all ligands
Procedure: Cells: M2-10B4 mouse marrow stromal cell line obtained from American Type Culture Collection (ATCC, Rockville, Md., U.S.A.) was derived from bone marrow stromal cells of a (C57BL/6J×C3H/HeJ) F1 mouse, and support human and murine myelopoiesis in long-term cultures (as per ATCC) and have the ability to differentiate into osteoblastic and adipocytic cells. Unless specified, these cells were cultured in RPMI 1640 containing 10% heat-inactivated FBS, and supplemented with 1 mM sodium pyruvate, 100 U/ml penicillin, and 100 […] (all from Irvine Scientific).
Alkaline phosphatase activity assay: Colorimetric alkaline phosphatase (ALP) activity assay on whole cell extracts was performed as previously described. […]
Test 2: M2 cells were grown in RPMI medium containing 10% fetal bovine serum (FBS). At confluence, the cells were treated in RPMI containing 5% FBS plus ascorbate at 50 μg/ml and β-glycerophosphate at 3 mM to induce osteoblastic differentiation. Adipogenic differentiation was induced by treating the cells in growth medium plus 10 ˜M troglitazone. A vehicle (C) or oxysterol treatment was applied to cells in a variety of doses (in μM): 20S-Hydroxycholesterol, 25-Hydroxycholesterol, 22R-Hydroxycholesterol; 22S-Hydroxycholesterol; 7-ketocholesterol. Cells were always treated at 90% confluence. After 4 days, alkaline phosphatase activity was determined in whole cell lysates and normalized to protein. Alternatively, MSC cultures were prepared and treated with oxysterols as described above. Cells were treated at 90% confluence with the combination of 22R-Hydroxycholesterol and 20S-Hydroxycholesterol, each at 5 μM, for 4 to 96 hours. The oxysterols where removed and fresh media without oxysterols was added for a total duration of 96 hours. Alkaline phosphatase activity was measured in whole cell extracts and normalized to protein.
M2 cells were treated at 90% confluence with vehicle (C), or oxysterols 20S-Hydroxycholesterol or 22S-Hydroxycholesterol at (0.5 μM) or (1 μM), in the absence or presence of cytochrome P450 inhibitor (SKF525A 10 μM (+)). MSC cultures were also treated at 90% confluence with vehicle (C), or 20S-Hydroxycholesterol (2 μM), in the absence or presence of cytochrome P450 […] (Benzylimidazole 50 μM) or SKF525A (10 μM). After 4 days, alkaline phosphatase activity was measured in whole cell extracts and normalized to protein. […]

[2] = system: osteocalcin mRNA in M2 cells; assay: Northern blotting for osteocalcin mRNA in M2 cells; assay type: cell-based, mouse; details: 0.5-10 μM, as many as 14 days, data not shown
Procedure: The extent of gene induction was determined by densitometry.
After 4 and 8 days, total RNA from duplicate samples was isolated and analyzed for osteocalcin (Osc) and 28S rRNA expression by Northern blotting as described. FIG. 3E is a radiogram of Northern blotting for osteocalcin mRNA in M2 cells exposed to a control or combination of oxysterols for 4 or 8 days. FIG. 3F is a bar graph depicting the relative demsometric units of osteocalcin mRNA in M2 cells exposed to a control or combination of oxysterols for 4 or 8 days. Data from densitometric analysis of the Northern blot is shown in (F) as the average of duplicate samples, normalized to 28S rRNA.
Next, a combination of 22R and 20S oxysterols (RS, 2.5 μM each) were added in the presence or absence of SC as indicated. After 3 days, ALP activity was measured as described earlier. […] (B) M2 cells were treated as described in (A) and after 10 days matrix mineralization in cultures was quantified by a ^45Ca incorporation assay as described earlier. Results from a representative of three experiments are shown, reported as the mean±SD of quadruplicate determinations, normalized to protein concentration. (C) M2 cells were pretreated with 20 μM SC for 4 hours, followed by the addition of RS in the presence or absence of SC as described above. After 8 days, total RNA was isolated and analyzed for osteocalcin (Osc) and 18S rRNA expression by Northern blotting as previously described. Data from densitometric analysis of the Northern blot is shown in (D) as the average of duplicate samples, normalized to 18S rRNA. (E) M2 cells at confluence were pretreated for 2 hours with control vehicle (C), or PLA2 inhibitors ACA (25 μM) and MCOCF3 (MC, 20 μM), in osteogenic medium. Next, a combination of 22R and 20S oxysterols (RS, 2.5 μM) was added in the presence or absence of the inhibitors as indicated. After 3 days, ALP activity was measured as previously described. Data from a representative of three experiments are shown, reported as the mean±SD of quadruplicate determinations, normalized to protein concentration (p<0.01 for RS vs. RS+ACA and RS+MC). (F) M2 cells were treated as described in (E).

M2 cells = assay: Adipogenesis of M2 cells, oil Red O staining and adipocyte count; assay type: cell-based, mouse; details: 10 μM Tro, 10 μM oxysterols, alone or in combination, 10 days (FIG. 7)
Procedure: Von Kossa and oil red O staining—Matrix mineralization in cell monolayers was detected by silver nitrate staining as previously described. Oil red O staining for detection of adipocytes was performed as previously described.
Test 1: M2 cells at 90% confluence were treated with vehicle (C), PPAR-γ activator, troglitazone 10 uM (Tro), alone or in combination with 10 μM oxysterols 20S-, 22R-, or 25S-hydroxycholesterol. After 8 days, adipocytes were identified by oil Red O staining and quantified by counting under a phase contrast microscope. FIG. 6A is a bar graph depicting the effect of oxysterols on reducing adipogenesis of MSC.
Test 2: (A) M2 cells at confluence were treated in RPMI containing 10% FBS with control vehicle or 10 μM troglitazone (Tro) in the absence or presence of 10 μM 20S or 22S oxysterols. After 10 days, adipocytes were visualized by oil Red O staining and quantified by light microscopy, shown in (B). Data from a representative of four experiments are shown, reported as the mean SD of quadruplicate determinations (p<0.001 for Tro vs. Tro+20S and Tro+22S). (C) M2 cells were treated at confluence with 10 μM Tro, alone or in combination with 10 μM 20S oxysterol. After 10 days, total RNA was isolated and analyzed for lipoprotein lipase (LPL), adipocyte P2 gene (aP2) or 18S rRNA expression by Northern blotting as described (Ref). Data from densitometric analysis of the Northern blot is shown in (D) as the average of duplicate samples, normalized to 18S rRNA.

Row | Compound | induction of alkaline phosphatase activity [1] | dose- and time-dependence of induction of alkaline phosphatase activity [1] | induction of osteocalcin gene expression, individual oxysterols [2] | adipogenesis induced by troglitazone (M2 cells) | alkaline phosphatase activity [1] [activity units/mg protein]
1 | CC(C)CC[C@H](O)[C@@H](C)[C@H]1CC[C@H]2[C@@H]3CC=C4C[C@@H](O)CC[C@]4(C)[C@H]3CC[C@]12C [22S, 22(S)-hydroxycholesterol] | induced | dose- and time-dependent | unable to induce | inhibited adipogenesis | –
2 | CC(C)CC[C@@H](O)[C@@H](C)[C@H]1CC[C@H]2[C@@H]3CC=C4C[C@@H](O)CC[C@]4(C)[C@H]3CC[C@]12C [22R, 22(R)-hydroxycholesterol] | induced | dose- and time-dependent | unable to induce | inhibited adipogenesis | 45±5
3 | CC(C)CCC[C@](C)(O)[C@H]1CC[C@H]2[C@@H]3CC=C4C[C@@H](O)CC[C@]4(C)[C@H]3CC[C@@]21C [20S, 20(S)-hydroxycholesterol] | induced | dose- and time-dependent | unable to induce | inhibited adipogenesis | 140±12

Reference: patent publication US9532994B2, “Agents and methods for enhancing bone formation by oxysterols in combination with bone morphogenic proteins” (THE REGENTS OF THE UNIVERSITY OF CALIFORNIA, priority 2003, dated 2017)
